Laboratory results: patent US20260250322A1, “NEW PEPTIDES AS SELECTIVE IL-23 RECEPTOR INHIBITORS” (SANOFI, priority 2023, published 2026)
Bridge positions count the residues as written; N and C are the ends. Square brackets hold non-standard residues; d marks the D form. Peptide text beside a SMILES is read from it. Trp(1-Me) = Cn1cc(C[C@H](N)C(=O)O)c2ccccc21; 1Nal = N[C@@H](Cc1cccc2ccccc12)C(=O)O; 2Nal = N[C@@H](Cc1ccc2ccccc2c1)C(=O)O; αMeL = CC(C)C[C@](C)(N)C(=O)O; Orn = NCCC[C@H](N)C(=O)O; Thp = NC1(C(=O)O)CCOCC1; Aib = CC(C)(N)C(=O)O

How the values were obtained:
[1] = test system: IL-23 induced STAT3 signaling; test: Inhibition of IL-23 induced STAT3 signaling in HEK-Blue IL-23 cells (SEAP reporter); assay type: cell-based; conditions: human IL-23 0.25 ng/ml, read-out: Inhibition of IL-23 induced pSTAT3 (IC50 nM)
From the text: HEK-Blue™ IL-23 cells (Invivogen) are designed for the detection of bioactive human (hIL-23) and murine IL-23 (mIL-23) by monitoring the activation of the STAT3 pathway. Binding of IL-23 to its receptor on the surface of HEK-Blue™ IL-23 cells triggers a signaling cascade leading to the activation of STAT3 and the subsequent production of secreted embryonic alkaline phosphatase (SEAP). This can be readily assessed using QUANTI-Blue™ Solution, a SEAP detection reagent.
HEK-Blue™ IL-23 cells were cultured as described by Invivogen.
On the first day of assay 10 μL of the HEK-Blue IL-23 cell suspension (final concentration: 10,000 cells/well) and 10 μl of serially diluted compound solutions were dispensed into a 384-well assay plate. After pre-incubation of the reaction mixtures at 37° C./5% CO2/95% humidity for 60 minutes, 10 μl of the humanIL-23 cytokine (final concentration: 0.25 ng/ml) was added to each well for the STAT3 signaling activation. The plate was incubated overnight at 37° C./5% CO2/95% humidity.
On the second day 20 μl per well of Quanti-Blue detection solution (prepared according to the manufacture instruction) was dispensed into a new 384-well plate and followed by the transfer of 5 μl supernatant of the overnight incubated cell/sample mixtures. After incubation of 45 min at room temperature signals were measured with PHERAstar (BMG) at OD 620-655 nm.
Dose response data were fitted with XLfit.

[2] = Chemical stability (relative purity loss) of peptide compounds in buffer formulations; assay type: physicochemical
Procedure: Purity of a compound batch was determined through UHPLC/MS prior to chemical stability measurement using Method A.
For stability assessment, the target concentration was 300 μM pure compound. Therefore, solutions from solid samples were prepared in the following buffer systems with a concentration of ~300 µM compound based on the previously determined % purity. The solid samples were obtained by drying down aliquots of a freshly prepared acetonitrile stock solution using a THERMO SPEEDVAC vacuum centrifuge. The dry down time was 3 hours.
The following buffer systems were applied: • Solubility buffer system A) 100 mM phosphate buffer pH 7.4. • Solubility buffer system B) 100 mM phosphate buffer pH 6.5. • Solubility buffer system C) 100 mM HCl pH 1.2.
Prepared solutions were filtered through […] pore size and filled into sterilized glass containers under laminar flow conditions.
[…] After this time course, the samples were centrifuged for 15 min at 2500 RCF. Then 1.5 μl of the undiluted supernatant were analysed with UHPLC-UV.
The chemical stability was rated through the relative loss of purity calculated by the equation:
[(purity after 0 hours at 37° C.)(purity after 24 hours at 37° C.)]/(purity after 0 hours at 37° C.)]*100%.
The purity is calculated as [(peak area peptide)/(total peak area)]*100%.
Buffer composition: 100 mM HCl pH 1.2, 100 mM phosphate buffer pH 6.5, 100 mM phosphate buffer pH 7.4

human IL-23R = target: T1, human IL-23R (Homo sapiens, UniProt Q5VWK5); test: Human ELISA IL-23/IL-23R binding inhibition; conditions: human IL-23 coated, recombinant human IL-23R-Fc chimera
T1 sequence (Q5VWK5 24-355 limits assumed): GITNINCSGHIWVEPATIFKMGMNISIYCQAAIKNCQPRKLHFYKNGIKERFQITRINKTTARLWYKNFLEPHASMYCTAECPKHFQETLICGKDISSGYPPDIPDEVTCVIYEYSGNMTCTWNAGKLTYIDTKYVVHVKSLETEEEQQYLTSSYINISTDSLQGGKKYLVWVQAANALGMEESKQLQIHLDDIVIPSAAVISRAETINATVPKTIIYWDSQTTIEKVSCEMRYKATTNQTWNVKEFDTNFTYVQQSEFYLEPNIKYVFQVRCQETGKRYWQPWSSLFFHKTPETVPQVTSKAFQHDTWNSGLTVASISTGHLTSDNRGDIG
Procedure: Antagonism of peptide compounds for human interleukin-23 receptor inhibitors, was determined by an ELISA assay.
A 384-well plate was coated with 50 μl/well of human IL-23 at a final concentration of 1 μg/ml and incubated overnight at 4° C. The wells were washed 3 times with 80 μl wash buffer and blocked with 80 μl blocking buffer for 60 minutes at room temperature and washed again. 20 μl of serially diluted test peptides was added to each well and subsequently 20 μl of recombinant human IL-23R-Fc chimera at final concentration of 0.1 μg/ml. The plate was incubated for 60 minutes at room temperature. After the wells were washed, bound IL-23R-Fc was detected with goat anti-hu-lgG1-HRP antibody. Signals were visualized with QuantaBlu Fluorogenic Peroxidase Substrate.

[3] = pH 6.5 (100 mM phosphate buffer)
[4] = pH 7.4 (100 mM phosphate buffer)

Row | IC50 [1] [nM] | Conc. [mg/ml] 0 h ([2]; pH 1.2 (100 mM HCl)) [mg/mL] | Conc. [mg/ml] 24 h 37° C. ([2]; pH 1.2 (100 mM HCl)) [mg/mL] | Mass Balance [%] 24 h 37° C. ([2]; pH 1.2 (100 mM HCl)) [%] | Relative Purity Loss [%] 24 h 37° C. ([2]; pH 1.2 (100 mM HCl)) [%] | Conc. [mg/ml] 0 h [2, 3] [mg/mL] | Conc. [mg/ml] 24 h 37° C. [2, 3] [mg/mL] | Mass Balance [%] 24 h 37° C. [2, 3] [%] | Relative Purity Loss [%] 24 h 37° C. [2, 3] [%] | Conc. [mg/ml] 0 h [2, 4] [mg/mL] | Conc. [mg/ml] 24 h 37° C. [2, 4] [mg/mL] | Mass Balance [%] 24 h 37° C. [2, 4] [%] | Relative Purity Loss [%] 24 h 37° C. [2, 4] [%] | IC50 (human IL-23R) [nM] | SMILES
1 | 385 | – | – | – | – | – | – | – | – | – | – | – | – | 1.21 | COc1ccc(C[C@@H]2NC(=O)[C@H](CCCNC(=N)N)NC(=O)[C@H](CCC(N)=O)NC(=O)[C@H](Cc3cn(C)c4ccccc34)NC(=O)[C@H]([C@@H](C)O)NC(=O)[C@H](CC(N)=O)NC(=O)[C@H](NC(C)=O)CCCCNC(=O)C[C@@H](C(=O)N[C@@H](CC(N)=O)C(=O)N[C@@H](CC(N)=O)C(N)=O)NC(=O)[C@](C)(CC(C)C)NC(=O)[C@H](Cc3ccc4ccccc4c3)NC2=O)cc1 [compound 24] (Ac-[dK]NT[Trp(1-Me)]QRY(Me)[2Nal][αMeL]DNN-NH2; lactam 1-10)
2 | 426 | – | – | – | – | – | – | – | – | – | – | – | – | 1.04 | COc1ccc(C[C@@H]2NC(=O)[C@H](CCCNC(=N)N)NC(=O)[C@H](CCC(N)=O)NC(=O)[C@H](Cc3c[nH]c4ccccc34)NC(=O)[C@H]([C@@H](C)O)NC(=O)[C@H](CC(N)=O)NC(=O)[C@H](NC(C)=O)CCCCNC(=O)C[C@@H](C(=O)N[C@@H](CC(N)=O)C(=O)N[C@@H](CC(N)=O)C(N)=O)NC(=O)C(C)(C)NC(=O)[C@H](Cc3ccc4ccccc4c3)NC2=O)cc1 [compound 15] (Ac-[dK]NTWQRY(Me)[2Nal][Aib]DNN-NH2; lactam 1-10)
3 | 221 | – | – | – | – | – | – | – | – | – | – | – | – | 1.47 | COc1ccc(C[C@@H]2NC(=O)[C@H](CCCNC(=N)N)NC(=O)[C@H](CCC(N)=O)NC(=O)[C@H](Cc3c[nH]c4ccccc34)NC(=O)[C@H]([C@@H](C)O)NC(=O)[C@H](CC(N)=O)NC(=O)[C@@H](NC(C)=O)CCCCNC(=O)C[C@@H](C(=O)N[C@@H](CC(N)=O)C(=O)N[C@@H](CC(N)=O)C(N)=O)NC(=O)C3(CCOCC3)NC(=O)[C@H](Cc3ccc4ccccc4c3)NC2=O)cc1 [compound 41] (Ac-KNTWQRY(Me)[2Nal][Thp]DNN-NH2; lactam 1-10)
4 | 943 | 0.2 | 0.2 | −2.5 | 26.2 | 0.2 | 0.2 | 4.1 | −1.4 | 0.2 | 0.2 | 4.6 | 2.0 | 2.74 | COc1ccc(C[C@@H]2NC(=O)[C@H](C)NC(=O)[C@H](CCC(N)=O)NC(=O)[C@H](Cc3c[nH]c4ccccc34)NC(=O)[C@H]([C@@H](C)O)NC(=O)[C@H](CC(N)=O)NC(=O)[C@H](NC(C)=O)CCCCNC(=O)C[C@@H](C(=O)N[C@@H](CC(N)=O)C(=O)N[C@@H](CC(N)=O)C(N)=O)NC(=O)C(C)(C)NC(=O)[C@H](Cc3cccc4ccccc34)NC2=O)cc1 [compound 8] (Ac-[dK]NTWQAY(Me)[1Nal][Aib]DNN-NH2; lactam 1-10)
5 | 320 | – | – | – | – | – | – | – | – | – | – | – | – | 2.68 | COc1ccc(C[C@@H]2NC(=O)C(C)(C)NC(=O)[C@H](CCC(N)=O)NC(=O)[C@H](Cc3c[nH]c4ccccc34)NC(=O)[C@H]([C@@H](C)O)NC(=O)[C@H](CC(N)=O)NC(=O)[C@H](NC(C)=O)CCCCNC(=O)C[C@@H](C(=O)N[C@@H](CC(N)=O)C(=O)N[C@@H](CC(N)=O)C(N)=O)NC(=O)C(C)(C)NC(=O)[C@H](Cc3ccc4ccccc4c3)NC2=O)cc1 [compound 32] (Ac-[dK]NTWQ[Aib]Y(Me)[2Nal][Aib]DNN-NH2; lactam 1-10)

Second part, the compound before the results:

Row | SMILES | IC50 [1] [nM] | Conc. [mg/ml] 0 h ([2]; pH 1.2 (100 mM HCl)) [mg/mL] | Conc. [mg/ml] 24 h 37° C. ([2]; pH 1.2 (100 mM HCl)) [mg/mL] | Mass Balance [%] 24 h 37° C. ([2]; pH 1.2 (100 mM HCl)) [%] | Relative Purity Loss [%] 24 h 37° C. ([2]; pH 1.2 (100 mM HCl)) [%] | Conc. [mg/ml] 0 h [2, 3] [mg/mL] | Conc. [mg/ml] 24 h 37° C. [2, 3] [mg/mL] | Mass Balance [%] 24 h 37° C. [2, 3] [%] | Relative Purity Loss [%] 24 h 37° C. [2, 3] [%] | Conc. [mg/ml] 0 h [2, 4] [mg/mL] | Conc. [mg/ml] 24 h 37° C. [2, 4] [mg/mL] | Mass Balance [%] 24 h 37° C. [2, 4] [%] | Relative Purity Loss [%] 24 h 37° C. [2, 4] [%] | IC50 (human IL-23R) [nM]
6 | COc1ccc(C[C@@H]2NC(=O)[C@H](CC(C)C)NC(=O)[C@H](CCC(N)=O)NC(=O)[C@H](Cc3c[nH]c4ccccc34)NC(=O)[C@H]([C@@H](C)O)NC(=O)[C@H](CC(N)=O)NC(=O)[C@H](NC(C)=O)CCCCNC(=O)C[C@@H](C(=O)N[C@@H](CC(N)=O)C(=O)N[C@@H](CC(N)=O)C(N)=O)NC(=O)C(C)(C)NC(=O)[C@H](Cc3cccc4ccccc34)NC2=O)cc1 [compound 7] (Ac-[dK]NTWQLY(Me)[1Nal][Aib]DNN-NH2; lactam 1-10) | 850 | 1.1 | 0.7 | −9.6 | 26.5 | 1.5 | 1.5 | −3.9 | 0.3 | 1.1 | 1.0 | −2.3 | 4.7 | 2.47
7 | COc1ccc(C[C@@H]2NC(=O)[C@H](CCCNC(=N)N)NC(=O)[C@H](CCC(N)=O)NC(=O)[C@H](Cc3c[nH]c4ccccc34)NC(=O)[C@H]([C@@H](C)O)NC(=O)[C@H](CC(N)=O)NC(=O)[C@H](NC(C)=O)CCCCNC(=O)CC[C@@H](C(=O)N[C@@H](CC(N)=O)C(=O)N[C@@H](CC(N)=O)C(N)=O)NC(=O)C(C)(C)NC(=O)[C@H](Cc3ccc4ccccc4c3)NC2=O)cc1 [compound 5] (Ac-[dK]NTWQRY(Me)[2Nal][Aib]ENN-NH2; lactam 1-10) | 432 | – | – | – | – | – | – | – | – | – | – | – | – | 1.95
8 | COc1ccc(C[C@@H]2NC(=O)[C@H](C)NC(=O)[C@H](CCC(N)=O)NC(=O)[C@H](Cc3c[nH]c4ccccc34)NC(=O)[C@H]([C@@H](C)O)NC(=O)[C@H](CC(N)=O)NC(=O)[C@H](NC(C)=O)CCCCNC(=O)C[C@@H](C(=O)N[C@@H](CC(N)=O)C(=O)N[C@@H](CC(N)=O)C(N)=O)NC(=O)C(C)(C)NC(=O)[C@H](Cc3ccc4ccccc4c3)NC2=O)cc1 [compound 2] (Ac-[dK]NTWQAY(Me)[2Nal][Aib]DNN-NH2; lactam 1-10) | 234 | – | – | – | – | – | – | – | – | – | – | – | – | 0.69
9 | COc1ccc(C[C@@H]2NC(=O)[C@H](CCCNC(=N)N)NC(=O)[C@H](CCC(N)=O)NC(=O)[C@H](Cc3c[nH]c4ccccc34)NC(=O)[C@H]([C@@H](C)O)NC(=O)[C@H](CC(N)=O)NC(=O)[C@@H](NC(C)=O)CC(=O)NCCC[C@@H](C(=O)N[C@@H](CC(N)=O)C(=O)N[C@@H](CC(N)=O)C(N)=O)NC(=O)C(C)(C)NC(=O)[C@H](Cc3ccc4ccccc4c3)NC2=O)cc1 [compound 6] (Ac-DNTWQRY(Me)[2Nal][Aib][Orn]NN-NH2; lactam 1-10) | 366 | 1.6 | 1.1 | −3.8 | 27.3 | 1.4 | 1.3 | −1.4 | 0.6 | 1.4 | 1.3 | −4.8 | 1.4 | 1.96
